# Reference: patent US20190247376A1, “NICOTINIC ACETYLCHOLINE RECEPTOR AGONIST ATTENUATES ILC2-DEPENDENT AIRWAY HYPERREACTIVITY” (University of Southern California, priority 2016, published 2019)
# What was measured:
# Rag2 deficient mice = experiment: IL-33-induced ILC2-mediated AHR and airway inflammation in Rag2-deficient mice; type: in vivo, mouse
# Protocol: FIGS. 3A-3H: α7nAChR agonist treatment ameliorates ILC2s mediated AHR. (FIG. 3A) Rag2-deficient mice were intranasally challenged with recombinant mouse IL-33 or PBS and also received α7nAChR agonist (125 μg) or PBS on days 1-3 according to scheme 3A. Measurement of lung function and analyses of bronchoalveolar lavage fluid (BALF) and lung histology followed on day 4. (FIGS. 3B-3C) Lung resistance and dynamic compliance. (FIG. 3D) Total number of cells and eosinophils in BALF. (FIG. 3E) Hematoxylin and eosin-stained lung sections (×200). Scale bars represent 50 μm. (FIG. 3F) Quantification of lung histopathology shown as number of inflammatory cells per 250 μm^2 and thickness of airway epithelium (μm). (FIG. 3G) Total number and frequency of lung ILC2s. (FIG. 3H) Percentage of IL-5^+ and IL-13^+ lung ILC2s determined by flow cytometry. Data are representative of at least four independent experiments and are presented as means±SEM (n=8; Student's test *, p<0.05; **, p<0.01; ***, p<0.001).
# As reported previously^6-9,11,12,34,35, the IL-5 and IL-13 cytokines produced by activated ILC2s are essential for eosinophilic inflammation and AHR development. Applicants investigated whether the attenuated ILC2 function by α7nAChR stimulation in vitro could result in inhibition of ILC2-mediated AHR and allergic inflammation. Rag2 deficient mice (devoid of T and B cells) were given intranasal (i.n.) rm-IL-33, with or without α7nAChR agonist for three consecutive days (FIG. 3A). As IL-33 administration specifically induces ILC2s, thereby causing AHR, with this model Applicants can readily explore the effect of an α7nAChR agonist in ILC2-mediated AHR. One day after the last challenge, lung function was evaluated by direct measurements of lung resistance (RL) and dynamic compliance (Cdyn), as described in the materials and methods section. […] These findings concur with the reduction of AHR and eosinophil counts in BALF (FIGS. 3B-3D). Thus, α7nAChR agonist represses IL-5 and IL-13 production, eosinophil recruitment, and ILC2-dependent AHR.
# (§1) Mice were intranasally (i.n.) administered carrier-free recombinant mouse IL-33 (BioLegend, San Diego Calif., 0.5 µg per mouse in 50 µL) with or without […] of α7nAChR agonist (kindly provided by Lin Chen) on three consecutive days. Mice were intranasally (i.n.) administered carrier-free recombinant mouse IL-25 (BioLegend, San Diego Calif., 5 µg per mouse in 50 µL) with or without […] of α7nAChR agonist on three consecutive days. For Alternaria alternata experiments, mice were i.n. administered Alternaria alternata (Greer Labs, Lenoir, N.C., 100 μg per mouse in 50 μL) with or without 125 µg α7nAChR agonist for four consecutive days. One day after the last challenge, mice were anesthetized using i.p. injection of ketamine (10 mg mL^−1) and xylazine (1 mg mL^−1). Measurements of airway resistance and dynamic compliance were conducted with the Fine Pointe RC System (Buxco Research Systems, Wilmington, N.C.), in which mice were mechanically ventilated using a modified version as previously described^36,67. Mice were sequentially challenged with aerosolized PBS (baseline), followed by increasing doses of methacholine. Maximum lung resistance (RL) and minimum compliance (Cdyn) values were recorded during a three-minute period after each methacholine challenge.
# After measurements of AHR, the trachea was canulated and the lungs lavaged three times with 1 mL ice cold PBS to collect BALF cells as previously described^68. […]
# Rag2−/− mice = experiment: Alternaria alternata-induced AHR in Rag2-deficient mice; type: in vivo, mouse; settings: four consecutive days
# Source text: FIGS. 6A-6C: α7nAChR agonist inhibits Alternaria-induced AHR. (FIG. 6A) Rag2-deficient mice intranasally received an extract of Alternaria alternata with or without α7nAChR agonist on days 1-4 according to scheme FIG. 6A. Measurement of lung function and BALF analysis followed on day 5. (FIG. 6B) Lung resistance. (FIG. 6C) Total number of eosinophils in BALF. Total number of lung ILC2s. Data are representative of at least four independent experiments and are presented as means±SEM (n=4; Student's t test *, p<0.05; ***, p<0.001).
# It has been previously reported that Alternaria alternata can induce AHR^40. Applicants further explored the anti-inflammatory effects of α7nAChR agonist in ILC2-mediated AHR with this clinically relevant allergen. Rag2^−/− mice were i.n. administered Alternaria alternata extract with or without α7nAChR agonist for four consecutive days (FIG. 6A). […] Accordingly, the number of eosinophils in BALF and lung ILC2s were increased in Alternaria-treated mice. Meanwhile, α7nAChR agonist treatment abolished eosinophils and ILC2s in the lung (FIG. 6C).
# as §1, with “Measurements of airway resistance and dynamic compliance were conducted with the Fine Pointe RC System (Buxco Research Systems, Wilmington, N.C.), in which mice were mechanically ventilated using a modified version as previously described^36,67. Mice were sequentially challenged with aerosolized PBS (baseline), followed by increasing doses of methacholine.” left out
# [1] = i.n. rm-IL-33, agonist 125 μg days 1-3, day 4
# [2] = i.n. rm-IL-33, agonist 125 μg days 1-3, measured day 4
# [3] = i.n. rm-IL-33, agonist 125 μg days 1-3, vs untreated mice
# [4] = i.n. Alternaria alternata extract, agonist
smiles,measurement,setting,value
"COc1ccc(/C=C2\CCCN=C2c2cccnc2)c(OC)c1 [GTS-21, 3-[(3E)-3-[(2,4-dimethoxyphenyl)methylidene]-5,6-dihydro-4H-pyridin-2-yl]pyridine]",absolute number of lung ILC2s,Rag2 deficient mice; [1],significantly suppressed
same,airway wall thickness (lung histology),Rag2 deficient mice; [1],prevented
same,eosinophilic infiltration in BALF,Rag2 deficient mice; [1],decreased
same,frequency of lung ILC2s,Rag2 deficient mice; [1],significantly suppressed
same,infiltrated cells (lung histology),Rag2 deficient mice; [1],prevented
same,total cell counts (TCC) in BALF,Rag2 deficient mice; [1],decreased
same,dynamic compliance (Cdyn),Rag2 deficient mice; [2],significantly reduced
same,lung resistance (RL),Rag2 deficient mice; [2],significantly reduced
same,IL-5 producing lung ILC2s (intracellular cytokine assay),Rag2 deficient mice; [3],significantly decreased
same,IL-13 producing lung ILC2s (intracellular cytokine assay),Rag2 deficient mice; [3],significantly decreased
same,AHR (lung resistance),"Rag2−/− mice; i.n. Alternaria alternata extract 100 μg, agonist 125 μg",did not develop AHR
same,eosinophils in BALF,Rag2−/− mice; [4],abolished
same,lung ILC2s,Rag2−/− mice; [4],abolished
